Test results: ChEMBL document CHEMBL1201862, “PubChem BioAssay data set” (2004)
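Five compound concentrations were applied to cells in 96-well plates for 48 hours; endpoints were derived by simple linear interpolation of the resulting dose-response curve. GI50 is the concentration that inhibits growth by half.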 The source made the active and inactive calls. Rule as the data show it: active = GI50 up to about 1.1 µM and inactive = higher.

How the values were obtained:
Assay in all cases: NCI tumour cell line growth inhibition, 48 h
786-0 = system: 786-0
A498 = system: A498
A549 = system: A549
ACHN = system: ACHN
BT-549 = system: BT-549
CAKI-1 = system: CAKI-1
CCRF-CEM = system: CCRF-CEM
COLO 205 = system: COLO 205
DU-145 = system: DU-145
EKVX = system: EKVX
HCT-116 = system: HCT-116
HCT-15 = system: HCT-15
HOP-62 = system: HOP-62
HOP-92 = system: HOP-92
HT-29 = system: HT-29
Hs-578T = system: Hs-578T
IGROV-1 = system: IGROV-1
K562 = system: K562
KM12 = system: KM12
LOX IMVI = system: LOX IMVI
M14 = system: M14
MDA-MB-231 = system: MDA-MB-231
MDA-MB-435 = system: MDA-MB-435
MDA-N = system: MDA-N
MOLT-4 = system: MOLT-4
Malme-3M = system: Malme-3M
NCI-H226 = system: NCI-H226
NCI-H23 = system: NCI-H23
NCI-H522 = system: NCI-H522
NCI/ADR-RES = system: NCI/ADR-RES
OVCAR-3 = system: OVCAR-3
OVCAR-4 = system: OVCAR-4
OVCAR-5 = system: OVCAR-5
OVCAR-8 = system: OVCAR-8
PC-3 = system: PC-3
RPMI-8226 = system: RPMI-8226
RXF 393 = system: RXF 393
SF-268 = system: SF-268
SF-295 = system: SF-295
SK-MEL-28 = system: SK-MEL-28
SK-MEL-2 = system: SK-MEL-2
SK-MEL-5 = system: SK-MEL-5
SK-OV-3 = system: SK-OV-3
SN12C = system: SN12C
SNB-19 = system: SNB-19
SNB-75 = system: SNB-75
SR = system: SR
SW-620 = system: SW-620
T47D = system: T47D
TK-10 = system: TK-10
U-251 = system: U-251
UACC-257 = system: UACC-257
UACC-62 = system: UACC-62
UO-31 = system: UO-31
HCC 2998 = system: HCC 2998
HL-60 = system: HL-60
MCF7 = system: MCF7
NCI-H460 = system: NCI-H460
SF-539 = system: SF-539

Measured: GI50

CC(C)(C)/C(O)=C\c1nc2ccc(C(F)(F)F)cc2[nH]c1=O
inactive: 786-0 > 100 µM | A498 > 100 µM | A549 > 100 µM | ACHN > 100 µM | BT-549 > 100 µM | CAKI-1 > 100 µM | CCRF-CEM > 100 µM | COLO 205 > 100 µM | DU-145 > 100 µM | EKVX > 100 µM | HCT-116 > 100 µM | HOP-62 > 100 µM | HOP-92 > 100 µM | HT-29 > 100 µM | Hs-578T > 100 µM | IGROV-1 > 100 µM | K562 > 100 µM | KM12 > 100 µM | LOX IMVI > 100 µM | M14 > 100 µM | MDA-MB-231 > 100 µM | MDA-MB-435 > 100 µM | MDA-N > 100 µM | MOLT-4 > 100 µM | Malme-3M > 100 µM | NCI-H226 > 100 µM | NCI-H23 > 100 µM | NCI-H522 > 100 µM | NCI/ADR-RES > 100 µM | OVCAR-3 > 100 µM | OVCAR-4 > 100 µM | OVCAR-5 > 100 µM | OVCAR-8 > 100 µM | PC-3 > 100 µM | RPMI-8226 > 100 µM | RXF 393 > 100 µM | SF-268 > 100 µM | SF-295 > 100 µM | SK-MEL-28 > 100 µM | SK-MEL-2 > 100 µM | SK-MEL-5 > 100 µM | SK-OV-3 > 100 µM | SN12C > 100 µM | SNB-19 > 100 µM | SNB-75 > 100 µM | SR > 100 µM | SW-620 > 100 µM | T47D > 100 µM | TK-10 > 100 µM | U-251 > 100 µM | UACC-257 > 100 µM | UACC-62 > 100 µM | UO-31 > 100 µM
> 100 µM: HCT-15

N#CC(=C1CCN(CCCC(=O)c2ccc(F)cc2)CC1)c1ccccc1
> 100 µM: HCT-15
inactive: 786-0 > 100 µM | A498 > 100 µM | A549 > 100 µM | ACHN > 100 µM | BT-549 > 100 µM | CAKI-1 > 100 µM | CCRF-CEM > 100 µM | COLO 205 > 100 µM | DU-145 > 100 µM | EKVX > 100 µM | HCC 2998 > 100 µM | HCT-116 > 100 µM | HL-60 > 100 µM | HOP-92 > 100 µM | HT-29 62.2 µM | Hs-578T > 100 µM | IGROV-1 > 100 µM | K562 > 100 µM | KM12 > 100 µM | LOX IMVI > 100 µM | MCF7 > 100 µM | MDA-MB-231 > 100 µM | MDA-MB-435 > 100 µM | MOLT-4 > 100 µM | Malme-3M > 100 µM | NCI-H226 > 100 µM | NCI-H23 > 100 µM | NCI-H460 > 100 µM | NCI-H522 21.3 µM | NCI/ADR-RES > 100 µM | OVCAR-4 > 100 µM | OVCAR-5 > 100 µM | OVCAR-8 > 100 µM | PC-3 > 100 µM | RPMI-8226 > 100 µM | RXF 393 > 100 µM | SF-268 > 100 µM | SF-295 > 100 µM | SF-539 > 100 µM | SK-MEL-28 > 100 µM | SK-MEL-2 > 100 µM | SK-MEL-5 > 100 µM | SK-OV-3 > 100 µM | SN12C > 100 µM | SNB-19 > 100 µM | SNB-75 > 100 µM | SR > 100 µM | SW-620 > 100 µM | T47D > 100 µM | TK-10 > 100 µM | U-251 > 100 µM | UACC-257 > 100 µM | UACC-62 > 100 µM | UO-31 > 100 µM

CCCCn1c(CSc2ccc(Cl)cc2)c(C(=O)OCC)c2cc(OC)c(Br)cc21
> 100 µM: HCT-15
inactive: 786-0 > 100 µM | A498 > 100 µM | A549 > 100 µM | ACHN > 100 µM | BT-549 > 100 µM | CAKI-1 31.5 µM | CCRF-CEM > 100 µM | COLO 205 > 100 µM | DU-145 > 100 µM | EKVX > 100 µM | HCC 2998 > 100 µM | HCT-116 > 100 µM | HL-60 > 100 µM | HOP-62 > 100 µM | Hs-578T > 100 µM | IGROV-1 > 100 µM | K562 > 100 µM | KM12 > 100 µM | LOX IMVI > 100 µM | M14 > 100 µM | MDA-MB-231 > 100 µM | MDA-MB-435 > 100 µM | MDA-N > 100 µM | MOLT-4 > 100 µM | Malme-3M > 100 µM | NCI-H226 > 100 µM | NCI-H23 > 100 µM | NCI-H460 > 100 µM | NCI-H522 > 100 µM | NCI/ADR-RES > 100 µM | OVCAR-3 > 100 µM | OVCAR-4 > 100 µM | OVCAR-5 > 100 µM | OVCAR-8 > 100 µM | PC-3 > 100 µM | RPMI-8226 > 100 µM | SF-268 > 100 µM | SF-295 > 100 µM | SK-MEL-28 > 100 µM | SK-MEL-2 > 100 µM | SK-MEL-5 > 100 µM | SK-OV-3 > 100 µM | SN12C > 100 µM | SNB-19 > 100 µM | SNB-75 > 100 µM | SR 88.7 µM | SW-620 > 100 µM | T47D > 100 µM | TK-10 > 100 µM | U-251 > 100 µM | UACC-257 > 100 µM | UACC-62 > 100 µM | UO-31 > 100 µM

CC(=O)OC[C@H]1CN(OC(C)=O)C[C@@H](n2cc(C)c(=O)[nH]c2=O)O1
> 100 µM: HCT-15
inactive: 786-0 > 100 µM | A498 > 100 µM | A549 > 100 µM | ACHN > 100 µM | BT-549 > 100 µM | CAKI-1 > 100 µM | COLO 205 > 100 µM | DU-145 > 100 µM | EKVX > 100 µM | HCC 2998 > 100 µM | HCT-116 > 100 µM | HL-60 > 100 µM | HOP-62 > 100 µM | Hs-578T > 100 µM | IGROV-1 > 100 µM | K562 > 100 µM | KM12 > 100 µM | M14 > 100 µM | MCF7 > 100 µM | MDA-MB-231 > 100 µM | MDA-MB-435 > 100 µM | MDA-N > 100 µM | MOLT-4 > 100 µM | NCI-H226 > 100 µM | NCI-H460 > 100 µM | OVCAR-4 > 100 µM | OVCAR-5 > 100 µM | OVCAR-8 > 100 µM | PC-3 > 100 µM | RPMI-8226 > 100 µM | RXF 393 > 100 µM | SF-268 > 100 µM | SF-295 > 100 µM | SF-539 > 100 µM | SK-MEL-28 > 100 µM | SK-MEL-2 > 100 µM | SK-MEL-5 > 100 µM | SK-OV-3 > 100 µM | SN12C > 100 µM | SNB-19 > 100 µM | SNB-75 61.5 µM | SW-620 > 100 µM | T47D > 100 µM | TK-10 > 100 µM | U-251 > 100 µM | UACC-257 > 100 µM | UACC-62 > 100 µM | UO-31 > 100 µM

COc1ccc2c(c1)O[C@@H]1[C@@H](OC3OC(CO)C(O)C(O)C3O)Oc3cc(OC)c(OC)cc3[C@]1(O)C2=O (stereo not given in full)
active: HL-60 1.11 µM
> 100 µM: HCT-15
inactive: 786-0 > 100 µM | A498 > 100 µM | A549 > 100 µM | ACHN > 100 µM | BT-549 > 100 µM | CAKI-1 > 100 µM | CCRF-CEM > 100 µM | COLO 205 > 100 µM | DU-145 > 100 µM | EKVX > 100 µM | HCC 2998 > 100 µM | HCT-116 > 100 µM | HOP-62 > 100 µM | HOP-92 > 100 µM | HT-29 > 100 µM | Hs-578T > 100 µM | IGROV-1 > 100 µM | K562 > 100 µM | KM12 > 100 µM | LOX IMVI > 100 µM | M14 > 100 µM | MDA-MB-231 > 100 µM | MDA-MB-435 > 100 µM | MDA-N > 100 µM | MOLT-4 > 100 µM | Malme-3M > 100 µM | NCI-H226 34 µM | NCI-H23 > 100 µM | NCI-H460 > 100 µM | NCI-H522 > 100 µM | NCI/ADR-RES > 100 µM | OVCAR-3 > 100 µM | OVCAR-4 > 100 µM | OVCAR-5 > 100 µM | OVCAR-8 > 100 µM | PC-3 > 100 µM | RPMI-8226 > 100 µM | RXF 393 > 100 µM | SF-268 > 100 µM | SF-295 > 100 µM | SF-539 > 100 µM | SK-MEL-28 25.8 µM | SK-MEL-2 > 100 µM | SK-MEL-5 > 100 µM | SK-OV-3 > 100 µM | SN12C > 100 µM | SNB-19 > 100 µM | SNB-75 > 100 µM | SR > 100 µM | SW-620 17.5 µM | T47D > 100 µM | TK-10 > 100 µM | U-251 > 100 µM | UACC-257 > 100 µM | UACC-62 > 100 µM | UO-31 > 100 µM
